In test [1] the test system is housefly larval central nervous system. Description: Neurophysiological recordings of CNS nerve discharge in housefly larvae. As to conditions: for EC50: Musca domestica. Set-up: species or system Musca domestica. On the procedure:
Neurophysiological recordings were performed on the central and peripheral nervous systems of larval Musca domestica. Glass pipette electrodes were pulled from borosilicate glass capillaries on a P-1000 Flaming/Brown micropipette puller (Sutter Instrument, Novato CA, USA). For CNS recordings, it was first excised from the larvae and placed in a separate dish with physiological saline (200 µL) containing: 157 mM NaCl, 3 mM KCl, 2 mM CaCl2, and 4 mM HEPES, pH = 7.25. The CNS was manually transected posterior to the cerebral lobes to disrupt the blood-brain barrier and enhance chemical penetration. Any convenient peripheral nerve trunks were pulled into a recording suction electrode. Amplification and digitization of descending electrical activity originating from the CNS were converted on-line into a rate plot, expressed in Hz (MacLab analog to digital converter hardware and LabChart 7 software, ADInstruments, Colorado Springs, CO, USA). […] After a baseline was established, the CNS preparation was directly exposed to test compound by adding 200 µL of solution to the bath containing 200 µL of saline. The final concentration of solvent in the bath was 0.1% DMSO. Each concentration was recorded for 3–5 min prior to the addition of the next drug concentration. […] Each drug concentration was replicated 3-5 times.

Test [2] concerns the target T1, Aedes aegypti AChE (AeAChE) (Aedes aegypti, UniProt Q6A2E2).
T1 construct: Homogenate enzymes were prepared from groups of ten non-blood fed adult female mosquitoes; from tissue; host or cells: whole adult female mosquitoes, supernatant of homogenate
Description: AChE inhibition, Ellman assay. In kind it is biochemical. The text has this:
(§1) In vitro biochemical assays utilized five acetylcholinesterase (AChE) enzymes. Recombinant human AChE (hAChE) was purchased from a commercial source (lyophilized powder, Sigma C1682, St. Louis, MO, USA). Homogenates to prepare Anopheles gambiae AChE (AgAChE) were obtained from the wild type G3 strain and the resistant AKRON strain (BEI Resources; http://www.beiresources.org/). AKRON mosquitoes (from Benin and donated by M. Akogbeto) have both knockdown resistance (kdr) to pyrethroids (L1014F sodium channel mutation) and the G119S AChE mutation (ace-1R), which confers resistance to carbamates, [15]. Both strains were cultured in the Emerging Pathogens Institute, University of Florida, Gainesville, FL, USA from eggs provided by the Center for Disease Control, Atlanta, GA, USA. Homogenates were also used to prepare Aedes aegypti AChE (AeAChE) from mosquitoes provided by the CMAVE, USDA-ARS, Gainesville, FL, USA; Musca domestica AChE (MdAChE) from flies cultured in the Department of Entomology and Nematology, Medical Entomology Laboratory, University of Florida, Gainesville, FL, USA); and Drosophila melanogaster AChE (DmAChE) from flies (Oregon-R strain) cultured in the Emerging Pathogens Institute, University of Florida, Gainesville, FL, USA. Homogenate enzymes were prepared from groups of ten non-blood fed adult female mosquitoes, five whole bodied Drosophila, or three Musca heads homogenized in 1 mL of ice-cold sodium phosphate buffer (0.1 M sodium phosphate, pH 7.8) with an electric motor driven glass tissue homogenizer. The homogenate was centrifuged at 5000×g using a Sorvall Fresco refrigerated centrifuge at 4 °C for 5 minutes. The supernatant was used as the enzyme source, and all enzyme preparations contained 0.3% (v/v) triton X-100 and 1 mg/ml BSA. Prior to use, the recombinant human enzyme was diluted 500-fold into sodium phosphate buffer containing triton X-100 and 1 mg/ml BSA.
(§2) Inhibition of AChE was determined using the Ellman assay and was based on the method outlined in Carlier et al.. Briefly, enzyme solution (10 µL) was added to each well of a 96-well micro assay plate, along with 20 µL of inhibitor in DMSO/saline suspension, and 150 µL of sodium phosphate buffer. Final concentration of DMSO was 0.1% in all incubations. The plate was incubated at 25 °C for ten minutes. Ellman assay reagents, acetylthiocholine iodide (0.4 mM, final concentration) and 5,5′-dithiobis-(2-nitro)benzoic acid (0.3 mM, final concentration), were prepared fresh and 20 µL was added to the enzyme to initiate the reaction.

Test [3] concerns the target T2, Drosophila melanogaster AChE (DmAChE) (Drosophila melanogaster, UniProt P07140).
T2 construct: five whole bodied Drosophila, or three Musca heads homogenized; from tissue; host or cells: whole Drosophila (Oregon-R), supernatant of homogenate
Briefly: AChE inhibition, Ellman assay. In kind it is biochemical.
Description: as §1, §2
(DTNB colorimetry detects thiols as they appear.)

Test [4] has as its target T3, Anopheles gambiae AChE (AgAChE), wild type G3 strain (Anopheles gambiae, UniProt Q869C3).
T3 construct: Homogenate enzymes were prepared from groups of ten non-blood fed adult female mosquitoes; from tissue; host or cells: whole adult female mosquitoes, G3 strain, supernatant of homogenate
Description: AChE inhibition, Ellman assay. The test is classed as biochemical.
Description: as §1, §2

Test [5] deals with T4, Recombinant human AChE (hAChE) (Homo sapiens, UniProt P22303).
T4 construct: purchased Sigma C1682
Description: AChE inhibition, Ellman assay. The following applies: mean, n = 3; read-out: IC50 (95% CI). The test is classed as biochemical.
Description: as §1
as §2, with “reaction. Changes in absorbance were recorded by a DYNEX Triad spectrophotometer (DYNEX Technologies, Chantilly, VA, USA) at 405 nm. Enzyme concentrations used were within the linear range, therefore eliminating the need for protein quantification.” for “reaction.”

The target of test [6] is Musca domestica AChE (MdAChE) (Musca domestica, UniProt Q7YWJ9). Briefly: AChE inhibition, Ellman assay. The test is classed as biochemical.
Description: as §1
as §2, with “reaction. Changes in absorbance were recorded by a DYNEX Triad spectrophotometer (DYNEX Technologies, Chantilly, VA, USA) at 405 nm. Enzyme concentrations used were within the linear range, therefore eliminating the need for protein quantification.” for “reaction.”

The target of test [7] is T5, AKRON AgAChE (G119S AChE mutation) (Anopheles gambiae, UniProt Q869C3, G280S).
T5 construct: Homogenate enzymes were prepared from groups of ten non-blood fed adult female mosquitoes; from tissue; host or cells: whole adult female mosquitoes, AKRON strain, supernatant of homogenate
Description: AChE inhibition, Ellman assay. The test is classed as biochemical.
Description: as §1
as §2, with “reaction. Changes in absorbance were recorded by a DYNEX Triad spectrophotometer (DYNEX Technologies, Chantilly, VA, USA) at 405 nm. Enzyme concentrations used were within the linear range, therefore eliminating the need for protein quantification.” for “reaction.”

The mark [8] stands for this setting: mean, n = 3, read-out: IC50 (95% CI).

Each structure is given as a SMILES string. Like-named read-outs stand apart in the source and are kept apart here.

By EC50 is commonly meant the concentration at which the effect is half-maximal. As usually defined, the IC50 is the concentration that inhibits the measured activity by half. As for `CNC(=O)Oc1ccccc1OC(C)C` [propoxur], the EC50 in test [1] (Fig. 3C, read-out: EC50 for increasing spike frequency in the CNS) turned out to be 0.344 µM. The IC50 in test [2] was 0.37 µM; in test [3], 0.084 µM; in test [4] it was 0.447 µM; in test [5] it was 1.44 µM; in test [6] (read-out: IC50 (95% CI); mean, n = 3), 0.13 µM; in test [7], above 100 µM. Moreover, the “fold more potent than the IC50 value of DEET to MdAChE” value in test [6] (mean IC50) was 40,000 fold.

With `CCN(CC)C(=O)c1cccc(C)c1` [DEET, N, N-diethyl-meta-toluamide], the “threshold concentration for neuroexcitation” value in test [1] is on record as “about 50 µM”. For the same compound, the EC50 in test [1] (abstract, read-out: EC50, excitatory effects) worked out at 120 µM. Moreover, the “sensitivity of enzyme in words” value in test [2] (concentrations up to 10 mM) and in test [4] (concentrations up to 10 mM) was “completely insensitive” throughout. The IC50 was above 10000 µM in test [2] (setting [8]); 10000 µM in test [3] (setting [8]); above 10000 µM in test [4] (setting [8]); 12000 µM in test [5]; 6000 µM in test [6] (mean, n = 3; read-out: IC50 (95% CI)); above 10000 µM in test [7].

For the origin of these results see PMC4125160, “Neurotoxicity and Mode of Action of N, N-Diethyl-Meta-Toluamide (DEET)” (PLoS ONE, 2014).
